Laboratory results reported in patent publication US9549928B2, “Muscarinic agonists as enhancers of cognitive flexibility” (THE UNIVERSITY OF TOLEDO, priority 2011, dated 2017).

How the values were obtained:
Format in all cases: in vivo, rat
male Long-Evans rats [1] = experiment: Delayed spontaneous alternation in a 4-arm cross maze (30 second delay); settings: i.p.
Method: For behavioral studies, male Long-Evans rats were purchased from Harlan (Indianapolis, Ind.) weighing between 325-375 g. Rats were individually housed in plastic cages (20.3 cm×20.3 cm×41.9 cm) in an environmentally controlled room (23° C., 30% humidity) on a 12 h:12 h light:dark cycle (lights on at 7:00 am). After at least four days to acclimate to the colony room, rats were handled for 10 minutes per day for four days to adjust to being handled during training and testing. At the same time rats began to be handled, rats were also food restricted to reduce their weight to 85-90% of their ad libitum weight. Rats had free access to water throughout the experiment. Animal care and use conformed to the guidelines of the National Institutes of Health Guide for the Care and Use of Laboratory Animals, and was approved by the Institutional Laboratory Animal Care and Use Committee at the University of Illinois at Chicago.
All behavioral testing occurred in a cross maze made of translucent black acrylic. Each arm measured 55 cm long, 10 cm wide, and 15 cm in height. A circular food well, with a diameter of 3.2 cm and a depth of 1.6 cm was placed 3 cm from the end of each arm. […]
In this test, rats were placed in the testing room 5 minutes prior to behavioral testing. […] The number and sequence of arm entries was recorded. An arm entry was recorded when all four paws entered an arm. […]

male Long-Evans rats [2] = experiment: Place discrimination acquisition and switch to visual cue discrimination (strategy switching); settings: i.p.
Method: A different group of rats was used for the discrimination learning and strategy switching tests from that used in the delayed spontaneous alternation test. Prior to testing, rats were food-restricted to maintain their weight at 85% of their free-feed weight, handled and trained in the maze to obtain half piece of Froot Loops® cereal in the cross-maze.
Following training, each rat was tested across two consecutive days. In the first experiment each rat had to learn a place discrimination. Rats were started in a pseudorandom manner from one of two different arms such that any start arm was not used more than 3 consecutive trials. The two start arms (“east” and “west”) were always opposite each other. A black plastic block was placed in the entrance of the maze arm opposite to that of the start arm, giving the maze a T-shape. Thus, the same two choice arms were used no matter what start arm was used. A rat was started in the stem arm with only one of the two choice arms baited. In the acquisition phase, one choice arm or place was designated the reinforced arm which contained a ½ piece of cereal reinforcement on each trial. In this phase, a rat was required to enter the reinforced arm containing a ½ piece of cereal. […]
In the switch phase of each experiment, the errors committed were separated into different categories and analyzed. […]

male Long-Evans rats [3] = experiment: Visual cue discrimination acquisition and switch to place discrimination (strategy switching); settings: 0.003 mg/kg i.p. before switch phase; vs controls
Method: In a separate experiment, the effect of CDD-0102A on initial learning of a visual cue strategy and switch to a place strategy was determined. All other aspects of the testing procedure were as described above. The treatment groups in this experiment were as follows: 1) saline—saline (n=8); 2) saline—CDD-0102A 0.003 mg/kg (n=7); 3) saline—CDD-0102A 0.03 mg/kg (n=7); 4) vehicle—CDD-0102A 0.1 mg/kg (n=8); 5) CDD-0102A 0.03 mg/kg-saline (n=7); or 6) CDD-0102A 0.01 mg/kg-saline (n=8).
These same types of errors were calculated in a similar manner for the experiment in which rats first learned a visual cue strategy and then switched to a place strategy.
In the spontaneous alternation task, a one-way analysis of variance was used to identify differences in percent alternation scores and number of arm entries across groups. Newman-Keuls post-hoc tests were used to compare treatment and control group measures. In the discrimination learning tests, one-way analyses of variance were used to identify differences in trials to criterion for acquisition and strategy switching. Separate analyses of variance were carried out to determine group differences in perseverative, regressive, and never-reinforced errors. Newman-Keuls post-hoc tests were used to compare differences between treatment groups.

male Long-Evans rats [4] = experiment: Salivation studies, salivary output over 60 minutes after i.p. administration
Method: For studies of salivation, male Long-Evans rats were purchased from Charles River Laboratories (Wilmington, Mass.) weighing between 250-425 g. Animals were kept in a vivarium on a 12-h light/dark cycle. Humidity was maintained at 30-70%, and temperature was maintained at 20-24° C. All procedures were approved by the Institutional Animal Care and Use Committee at Mithridion, Inc.
Salivation was quantified in rats following i.p. administration of CDD-0102A. Rats were first anesthetized with isoflurane, and then dosed with CDD-0102 by i.p. injection. Anesthesia was maintained by a nose cone that delivered 1.5-2.5% isoflurane in 500 ml/minute of oxygen. CDD-0102A was dissolved in phosphate-buffered saline and the injection volume was 2 ml/kg. The hind limbs of anesthetized animals were taped to the top of an incline (25° grade) so that the animal was oriented with its head near the bottom of the slope and its dorsal-surface oriented upward. Body temperature was monitored by a rectal thermometer, and maintained at 36-38° C. by a heating pad. The animal's nose was inserted into a nose cone for maintaining anesthesia while the entire mouth remained outside this nose cone. Pre-weighed filter paper (approximately 5×5 cm) was placed underneath the mouth to absorb the draining saliva. After 5 minutes, the saliva-wetted filter paper was weighed and replaced with fresh, pre-weighed filter paper. Total salivary output was calculated by subtracting the mass of the filter paper from the combined mass of paper plus saliva as collected over 60 minutes.

normal rats [5] = experiment: Example 2: attentional set-shifting model, place strategy shifted to visual cue strategy; settings: injection before acquisition (FIG. 7A)
Excerpt: The beneficial effects of CDD-0102A in the rat model of cognitive flexibility are among the strongest evidence providing the scientific rationale for CDD-0102A in the treatment of PSP. The inventors have developed several models of cognitive flexibility, including the model of attentional set shifting involving an extradimensional set shift described here. The model involves a place-visual cue task. Rats first learned to use a place strategy—always to enter the same arm to receive a food reward. Criterion was set at 10 consecutive correct trials. The following day, rats had to inhibit the place strategy and to learn a new visual cue strategy to receive the reward. Local visual cues in the maze arms included a black board in one arm and white board in the other arm. The cues were switched between the choice arms randomly across trials so the same cue was not always in the same location. The rat had to choose the arm that contained a particular color cue (e.g., black) in order to receive the reward. The criterion again was set at 10 consecutive correct trials.
Rats received either saline (N=3) or CDD-0102A at various doses 30 minutes prior to testing.

normal rats [6] = experiment: Example 2: attentional set-shifting model, visual cue strategy shifted to place strategy; settings: injection before acquisition (FIG. 8A)
Excerpt: The whole experiment was repeated with the rats learning first a visual cue strategy and then being switched to a place strategy.

For `CCc1noc(C2CN=CNC2)n1` (stereo not shown) [CDD-0102A, 5-(3-ethyl-1,2,4-oxadiazol-5-yl)-1,4,5,6-tetrahydropyrimidine], the “dose at which significant improvement in memory function was observed” value (male Long-Evans rats [1]) was ≥ 0.1 mg/kg, the “dose at which effect on strategy switching is maximal” value (male Long-Evans rats [2]) was 0.03 mg/kg and the “trials to criterion, switch to place strategy” value (male Long-Evans rats [3]) was “no significant effect”. For the same compound, the “salivary output over 60 minutes” value (male Long-Evans rats [4]; 0.1 mg/kg i.p.) was “no salivation”, the “salivary output over 60 minutes” value (male Long-Evans rats [4]; 5 mg/kg i.p. (most salivation), mean ± SEM) was 4,685±449 μl and the “salivary output over 60 minutes” value (male Long-Evans rats [4]; 10 mg/kg i.p., compared with 5 mg/kg dose, P>0.5) was “not significantly different”. The “separation between dose enhancing place-visual cue task (0.03 mg/kg ip) and dose producing half-maximum salivation” value (male Long-Evans rats [4]; efficacious dose lower than dose producing half-maximum salivation) was “approximately 100 fold”, the “lowest dose that produced salivation” value (male Long-Evans rats [4]; i.p.) was 0.3 mg/kg and the “acquisition of the place-cue strategy” value (normal rats [5]) was “no effect”. The “acquisition of the visual-cue strategy” value (normal rats [6]) was “no effect”.
